Test results taken from patent publication US6936628B2, “Oral administration of epothilones” (Bristol-Myers Squibb Company, priority 2002, dated 2005).
Like-named read-outs stand apart in the source and are kept apart here.

Tests used:
[1] = biological target: T1, CYP3A4 (Homo sapiens, UniProt P08684); experiment: Metabolism by specific CYP enzymes (human liver microsomes with specific inhibitors); assay type: in vitro ADME
Procedure: Compound A was incubated with human liver microsomes along with compounds specific for the inhibition of individual cytochrome P450s commonly involved in drug metabolism. The inhibitors used were; furafylline (CYP1A2), sulfaphenazole (CYP2C9), tranylcypromine (CYP2C19), quinidine (CYP2D6), troleandomycin (CYP3A4), and ketoconazole (CYP3A4).

[2] = Liver S9 incubation, mouse; conditions: mouse liver S9, 20 μM
[3] = Microsomal incubation, human; conditions: human liver microsomes + NADPH, 20 μM
[4] = Stability in rat EDTA plasma and whole blood; assay type: in vitro ADME
Procedure: (§1) Plasma samples from exploratory pharmacokinetic studies were analyzed for Compound A concentrations using an LC/MS/MS assay with a standard curve range of 3.9 to 2000 ng/mL. In pharmacodynamic studies, Compound A concentrations were determined using an LC/MS/MS assay with a standard curve range of 10-40000 nM (5.23-20920 ng/mL) in mouse plasma. For toxicology studies, validated LC/MS/MS assays were used to determine the concentrations of Compound A in rat and dog plasma. Analytical data management for the validated assays was carried out using Watson®. The standard curve range for the validated assay in both matrices was 2 to 500 ng/mL of Compound A. The coefficient of variation for the inter- and intra-assay precision in rat and dog plasma was within 9% and the accuracy was greater than 92%. […] Compound A was stable for at least 4 months at !20EC and through at least 3 freeze-thaw cycles in rat and dog EDTA plasma. In addition, Compound A was stable in fresh rat and dog EDTA whole blood for at least 1 h at 4EC.

[5] = biological target: T1, CYP3A4; experiment: Inhibition of human CYP enzymes, CYP3A4
[6] = tested on: HCT116/VM46 cells; experiment: In vitro cytotoxicity assay (MTS), HCT116/VM46; assay type: cell-based, human; conditions: Homo sapiens, HCT-116/VM46; HCT116/VM46 (MDR colon line), 72-hour incubation
[7] = Liver S9 incubation, dog; conditions: dog liver S9, 20 μM
[8] = Stability in dog EDTA plasma and whole blood; assay type: in vitro ADME
Procedure: as §1

[9] = Pharmacokinetics in mice; assay type: in vivo; conditions: nude mice
Procedure: The pharmacokinetics of Compound A was evaluated in nude mice after IV (5 mg/kg) and oral (15 mg/kg) administration (n=15 mice/group). Compound A was dissolved in a mixture of cremophor:ethanol:water (10:10:80) and cremophor:ethanol:phosphate buffer, pH 8 (10:10:80) for the preparation of IV and oral doses, respectively. Plasma concentrations of Compound A were determined at 10 and 45 min, and 2, 4, and 6 hours postdose from 3 mice/time point/group. Composite plasma concentration-time profiles were constructed for pharmacokinetic analysis. […] The VSS values was 38 L/kg which is greater than total body water of about 0.7 L/kg, indicating significant extravascular distribution. The T-HALF value, both after IV and oral administration, was 3.3 h.

[10] = Microsomal incubation, mouse; conditions: mouse liver microsomes + NADPH, 20 μM
[11] = tested on: Pat-7 human ovarian carcinoma; conditions: Balb/c nu/nu, mouse, in vivo, iv
[12] = biological target: human CYP2C19 (Homo sapiens, UniProt P33261); experiment: biochemical
[13] = biological target: CYP2C9 (Homo sapiens, UniProt P11712); experiment: biochemical
[14] = Liver S9 incubation, rat; conditions: rat liver S9, 20 μM

T1 sequence (P08684 whole entry): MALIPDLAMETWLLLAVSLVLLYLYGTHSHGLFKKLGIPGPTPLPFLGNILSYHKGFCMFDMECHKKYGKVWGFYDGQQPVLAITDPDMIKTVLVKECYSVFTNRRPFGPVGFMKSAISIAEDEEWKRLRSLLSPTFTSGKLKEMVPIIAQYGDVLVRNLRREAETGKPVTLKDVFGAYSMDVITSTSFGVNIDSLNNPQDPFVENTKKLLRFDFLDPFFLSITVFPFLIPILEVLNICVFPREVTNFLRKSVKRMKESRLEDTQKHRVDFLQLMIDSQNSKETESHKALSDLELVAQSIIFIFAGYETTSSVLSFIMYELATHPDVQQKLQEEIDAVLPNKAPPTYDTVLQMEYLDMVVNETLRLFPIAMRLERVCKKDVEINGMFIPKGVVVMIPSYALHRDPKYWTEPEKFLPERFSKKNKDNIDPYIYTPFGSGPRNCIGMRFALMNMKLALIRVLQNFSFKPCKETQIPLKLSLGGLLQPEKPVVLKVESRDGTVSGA
Sequence of human CYP2C19 (P33261 whole entry): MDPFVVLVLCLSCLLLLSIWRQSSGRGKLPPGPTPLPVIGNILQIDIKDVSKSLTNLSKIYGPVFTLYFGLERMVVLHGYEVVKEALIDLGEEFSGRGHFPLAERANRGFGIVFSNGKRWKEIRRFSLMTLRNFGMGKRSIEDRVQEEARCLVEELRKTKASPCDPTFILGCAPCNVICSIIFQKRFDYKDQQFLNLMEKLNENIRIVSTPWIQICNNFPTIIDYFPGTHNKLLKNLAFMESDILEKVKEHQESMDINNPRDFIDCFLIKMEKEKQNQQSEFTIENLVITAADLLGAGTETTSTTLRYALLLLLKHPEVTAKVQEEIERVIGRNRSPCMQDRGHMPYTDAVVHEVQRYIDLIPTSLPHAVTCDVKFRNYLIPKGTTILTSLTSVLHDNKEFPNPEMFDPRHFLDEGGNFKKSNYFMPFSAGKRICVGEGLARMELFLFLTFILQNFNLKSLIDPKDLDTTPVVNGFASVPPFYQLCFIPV
Sequence of CYP2C9 (P11712 whole entry): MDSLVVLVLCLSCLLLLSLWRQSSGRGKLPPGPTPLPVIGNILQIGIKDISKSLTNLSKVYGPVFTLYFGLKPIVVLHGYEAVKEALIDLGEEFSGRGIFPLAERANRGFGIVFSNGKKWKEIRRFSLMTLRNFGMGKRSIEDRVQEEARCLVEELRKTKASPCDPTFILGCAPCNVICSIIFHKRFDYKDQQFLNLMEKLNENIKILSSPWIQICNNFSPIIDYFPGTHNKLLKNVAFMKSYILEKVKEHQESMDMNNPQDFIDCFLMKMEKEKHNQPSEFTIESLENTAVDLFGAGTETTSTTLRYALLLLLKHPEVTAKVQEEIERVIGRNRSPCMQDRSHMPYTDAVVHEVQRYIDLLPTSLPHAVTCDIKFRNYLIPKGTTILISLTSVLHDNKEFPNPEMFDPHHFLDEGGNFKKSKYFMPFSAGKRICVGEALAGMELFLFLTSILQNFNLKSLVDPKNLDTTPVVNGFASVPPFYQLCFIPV

C/C(=C\c1csc(CN)n1)[C@@H]1C[C@@H]2O[C@]2(C)CCC[C@H](C)[C@H](O)[C@@H](C)C(=O)C(C)(C)[C@@H](O)CC(=O)O1 (relative stereo) [Compound A, [1S-[1R*,3R*(E),7R*,10S*,11R*,12R*,16S*]]-3-[2-[2-(aminomethyl)-4-thiazolyl]-1-methylethenyl]-7,11-dihydroxy-8,8,10,12,16-pentamethyl-4,17-dioxabicyclo[14.1.0]heptadecane-5,9-dione]
effect of CYP3A4 inhibitors (troleandomycin, ketoconazole) on biotransformation [1]: completely inhibited | rate of oxidative metabolism [2]: 0.06 | rate of oxidative metabolism [3]: 0.21 mmol/min/mg protein | stable through freeze-thaw cycles ([4]; rat EDTA plasma): at least 3 freeze-thaw cycles | stable in frozen plasma ([4]; rat EDTA plasma, !20EC): at least 4 months | stable in plasma prior to processing ([4]; rat EDTA plasma, room temperature): at least 4 h | stable in fresh whole blood ([4]; rat EDTA whole blood, 4EC): at least 1 h | stable in an autosampler after processing ([4]; rat plasma samples, 4EC): at least 5 days | IC50 [5]: 7.1 µM | IC50 [6]: 0.0119 µM | rate of oxidative metabolism [7]: 0.03 | stable through freeze-thaw cycles ([8]; dog EDTA plasma): at least 3 freeze-thaw cycles | stable in plasma prior to processing ([8]; dog EDTA plasma, 4EC): at least 4 h | stable in frozen plasma ([8]; dog EDTA plasma, !20EC): at least 4 months | stable in fresh whole blood ([8]; dog EDTA whole blood, 4EC): at least 1 h | stable in an autosampler after processing ([8]; dog plasma samples, 4EC): at least 5 days | Vd ([9]; mouse, plasma, IV 5 mg/kg, read-out: VSS): 38 L/kg | bioavailability ([9]; mouse, plasma, oral 15 mg/kg vs IV 5 mg/kg, read-out: absolute oral bioavailability): 21% | CLT ([9]; IV 5 mg/kg): 152 mL/min/kg | T-HALF ([9]; IV 5 mg/kg): 3.3 h | T-HALF ([9]; oral 15 mg/kg): 3.3 h | rate of oxidative metabolism [10]: 0.3 | OD (optimal dose or maximum tolerated dose) [11]: 8 mg/kg | IC50 [12]: 2.4 µM | IC50 [13]: 10.6 µM | increase in systemic exposure with cremophor vehicle (vehicle 2 compared to vehicle 1): about 3.4 fold | increase in systemic exposure with cremophor vehicle (vehicle 2 compared to vehicle 3): ~5.3 fold | rate of oxidative metabolism [14]: 0.04
